Counter-ions that a name gives are not always drawn.
Experiments:
[1] = target: human recombinant tryptase (Homo sapiens, UniProt Q15661); test: inhibition of the amidolytic activity of tryptase, chromogenic peptide substrate; format: biochemical; details: 2.8 nM human recombinant tryptase, Hepes buffer pH 7.8, 200 nM heparin, substrate tosyl-glycyl-prolyl-lysine-4-nitranilide acetate, room temperature
Method: (§1) To show the inhibition of the catalytic activity of tryptase one may use chromogenic peptide substrates. The inhibition of the amidolytic activity of tryptase by the compounds described above was shown as follows. The measurements were carried out at room temperature in microtiter plates. The compounds were dissolved in dimethylsulfoxide and 5 μl of this solution were added to a 2.8 nM solution of human recombinant tryptase in a Hepes buffer (pH: 7.8 In analogy to example 1 and using 100 mM Hepes, 140 mM NaCl, 0.1% PEG 6000, 0.05% Tween 80 and 200 nM heparin). Finally 750 μM of tosyl-glycyl-prolyl-lysine-4-nitranilide acetate in Hepes buffer were added and the hydrolysis of the substrate was followed with a spektrophometer. The same method but using N-methoxycarbonyl-D-norleucyl-glycyl-L-arginine-4-nitroanilide acetate as substrate was used to determine the inhibition of the proteolytic activity of factor Xa, i.e., another serin protease, by the compounds.

factor Xa = factor Xa (Homo sapiens, UniProt P00742); test: inhibition of the proteolytic activity of factor Xa, chromogenic peptide substrate; format: biochemical; details: same method, substrate N-methoxycarbonyl-D-norleucyl-glycyl-L-arginine-4-nitroanilide acetate
Method: as §1

factor Xa, sequence (P00742 235-488 limits assumed): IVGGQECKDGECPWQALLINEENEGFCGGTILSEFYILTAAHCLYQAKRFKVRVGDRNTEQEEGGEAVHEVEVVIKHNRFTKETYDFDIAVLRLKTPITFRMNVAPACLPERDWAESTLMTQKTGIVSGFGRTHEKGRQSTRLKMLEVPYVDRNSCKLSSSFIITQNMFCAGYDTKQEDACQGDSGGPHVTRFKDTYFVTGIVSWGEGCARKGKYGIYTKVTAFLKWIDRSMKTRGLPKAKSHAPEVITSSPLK
factor Xa, sequence (P00742 41-179 partner limits assumed): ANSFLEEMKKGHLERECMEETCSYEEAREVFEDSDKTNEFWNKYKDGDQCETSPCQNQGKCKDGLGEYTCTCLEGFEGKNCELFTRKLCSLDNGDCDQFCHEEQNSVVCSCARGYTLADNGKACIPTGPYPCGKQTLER
human recombinant tryptase, sequence (Q15661 31-275): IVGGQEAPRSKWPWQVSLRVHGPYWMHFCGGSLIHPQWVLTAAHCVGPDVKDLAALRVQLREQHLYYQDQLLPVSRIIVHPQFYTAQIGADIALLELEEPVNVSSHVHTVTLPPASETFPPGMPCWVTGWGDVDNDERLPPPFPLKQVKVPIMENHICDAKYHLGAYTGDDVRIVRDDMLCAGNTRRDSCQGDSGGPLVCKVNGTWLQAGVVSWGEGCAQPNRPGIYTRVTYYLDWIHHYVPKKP

Row | SMILES | IC50 [1] [µM] | IC50 (factor Xa) [µM]
1 | N=C(N)c1ccc(CNC(C(=O)NCC(=O)NCc2cccnc2)c2ccc[nH]2)cc1 (stereo not drawn) [Example 22, 2-[({4-[amino(imino)methyl]phenyl}methyl)amino]-N-{2-oxo-2-[(3-pyridinylmethyl)amino]ethyl)-2-(1H-pyrrol-2-yl)acetamide hydrochloride] | < 0.09 | 15
2 | CC(C)C(NC(=O)C(CO)Nc1cccc(C(=N)N)c1)C(=O)NCc1ccccc1 (stereo not drawn) [Example 17, 2-{[2-({3-[amino(imino)methyl]phenyl}amino)-3-hydroxypropanoyl]amino}-3-methyl-N-(phenylmethyl)butanamide hydrochloride] | < 0.09 | 7.6
3 | CC(C)C(NC(=O)CNc1cccc(C(=N)N)c1)C(=O)NCCc1c[nH]c2ccccc12 (stereo not drawn) [Example 12, 2-{[({3-[amino(imino)methyl]phenyl}amino)acetyl]amino}-N-[2-(1H-indol-3-yl)ethyl]-3-methylbutanamide hydrochloride] | < 0.09 | 14.5
4 | CC(C)C(Nc1cccc(C(=N)N)c1)C(=O)NCC(=O)NCCc1c[nH]c2ccccc12 (stereo not drawn) [Example 10, 2-({3-[amino(imino)methyl]phenyl}amino)-N-(2-{[2-(1H-indol-3-yl)ethyl]amino}-2-oxoethyl)-3-methylbutanamide hydrochloride] | < 0.09 | 55
5 | COc1ccc(CNC(=O)C(C)NC(=O)CNCc2ccc(C(=N)N)cc2)cc1OC (stereo not drawn) [Example 6, 2-({[({4-[amino(imino)methyl]phenyl}methyl)amino]acetyl}amino)-N-{[3,4-bis(methyloxy)phenyl]methyl}propanamide hydrochloride] | < 0.09 | > 110
6 | N=C(N)c1cccc(NC(CO)C(=O)NCC(=O)NCCc2c[nH]c3ccccc23)c1 (stereo not drawn) [Example 8, 2-({3-[amino(imino)methyl]phenyl}amino)-3-hydroxy-N-(2-{[2-(1H-indol-3-yl)ethyl]amino}-2-oxoethyl)propanamide hydrochloride] | < 0.09 | 7.8
7 | COc1ccccc1N1CCN(C(=O)CNC(=O)CNc2cccc(C(=N)N)c2)CC1 [Example 24, 2-({3-[amino(imino)methyl]phenyl}amino)-N-(2-{4-[2-(methyloxy)phenyl]-1-piperazinyl}-2-oxoethyl)acetamide hydrochloride] | < 0.09 | 1.6
8 | CC(Nc1cccc(C(=N)N)c1)C(=O)NCC(=O)NCCc1c[nH]c2ccccc12 (stereo not drawn) [Example 3, 2-({3-[amino(imino)methyl]phenyl}amino)-N-(2-{[2-(1H-indol-3-yl)ethyl]amino}-2-oxoethyl)propanamide hydrochloride] | < 0.09 | 21.9
9 | N=C(N)c1cccc(NC(C(=O)NCC(=O)NCCc2c[nH]c3ccccc23)c2cc[nH]n2)c1 (stereo not drawn) [Example 4, 2-({3-[amino(imino)methyl]phenyl}amino)-N-(2-{[2-(1H-indol-3-yl)ethyl]amino}-2-oxoethyl)-2-(1H-pyrazol-3-yl)acetamide hydrochloride] | < 0.09 | 26.4
10 | CC(C)C(NC(=O)C(CO)Nc1cccc(C(=N)N)c1)C(=O)NCc1ccc2c(c1)OCO2 (stereo not drawn) [Example 18, 2-{[2-({3-[amino(imino)methyl]phenyl}amino)-3-hydroxypropanoyl]amino}-N-(1,3-benzodioxol-5-ylmethyl)-3-methylbutanamide hydrochloride] | < 0.09 | 8.6

The remaining lines, values ahead:

Row | IC50 [1] [µM] | IC50 (factor Xa) [µM] | SMILES
11 | < 0.09 | 2.4 | N=C(N)c1cccc(NCC(=O)NCC(=O)NCCc2ccc(O)cc2)c1 [Example 9, 2-({3-[amino(imino)methyl]phenyl}amino)-N-(2-{[2-(4-hydroxyphenyl)ethyl]amino}-2-oxoethyl)acetamide hydrochloride]
12 | < 0.09 | > 110 | N=C(N)c1ccc(CNC(CO)C(=O)NCC(=O)NCCc2ccccn2)cc1 (stereo not drawn) [Example 20, 2-[({4-[amino(imino)methyl]phenyl}methyl)amino]-3-hydroxy-N-(2-oxo-2-{[2-(2-pyridinyl)ethyl]amino}ethyl)propanamide hydrochloride]
13 | < 0.09 | 22.8 | N=C(N)c1cccc(NCC(=O)NCC(=O)NCCN2CCOCC2)c1 [Example 25, 2-({3-[amino(imino)methyl]phenyl}amino)-N-(2-([2-(4-morpholinyl)ethyl]amino}-2-oxoethyl)acetamide hydrochloride]
14 | < 0.09 | 6.7 | N=C(N)c1cccc(NCC(=O)NCC(=O)NCCc2c[nH]c3ccccc23)c1 [Example 2, 2-({3-[amino(imino)methyl]phenyl}amino)-N-(2-{[2-(1H-indol-3-yl)ethyl]amino}-2-oxoethyl)acetamide hydrochloride]
15 | < 0.09 | 8.6 | CC(C)C(NC(=O)C(CO)Nc1cccc(C(=N)N)c1)C(=O)NCCC(c1ccccc1)c1ccccc1 (stereo not drawn) [Example 19, 2-{[2-({3-[amino(imino)methyl]phenyl}amino)-3-hydroxypropanoyl]amino}-N-(3,3-diphenylpropyl)-3-methylbutanamide hydrochloride]
16 | < 0.09 | > 110 | CC(NCc1ccc(C(=N)N)cc1)C(=O)NCC(=O)NCCc1ccccn1 (stereo not drawn) [Example 13, 2-[({4-[amino (imino)methyl]phenyl}methyl)amino]-N-(2-oxo-2-{[2-(2-pyridinyl)ethyl]amino}ethyl)propanamide hydrochloride]
17 | < 0.09 | 5.7 | CCOC(=O)C(Nc1cccc(C(=N)N)c1)C(=O)NC(C(=O)NCCc1c[nH]c2ccccc12)C(C)C (stereo not drawn) [Example 5, ethyl 2-({3-[amino(imino)methyl]phenyl}amino)-3-{[1-({[2-(1H-indol-3-yl)ethyl]amino}carbonyl)-2-methylpropyl]amino}-3-oxopropanoate hydrochloride]
18 | < 0.09 | > 110 | COC(=O)c1ccc(C(NCc2ccc(C(=N)N)cc2)C(=O)NC(C(=O)NCCc2c[nH]c3ccccc23)C(C)C)cc1 (stereo not drawn) [Example 7, methyl 4-(1-[({4-[amino(imino)methyl]phenyl}methyl)amino]-2-{[1-({[2-(1H-indol-3-yl)ethyl]amino}carbonyl)-2-methylpropyl]amino}-2-oxoethyl)benzoate hydrochloride]
19 | < 0.09 | 4.45 | CC(NC(=O)CNc1cccc(C(=N)N)c1)C(=O)NC1CCCCC1 (stereo not drawn) [Example 11, 2-{[({3-[amino(imino)methyl]phenyl}amino)acetyl]amino}-N-cyclohexylpropanamide hydrochloride]
20 | < 0.09 | > 110 | N=C(N)c1ccc(CNCC(=O)NCC(=O)N2CCN(Cc3ccc4c(c3)OCO4)CC2)cc1 [Example 23, 2-[({4-(amino(imino)methyl)phenyl)methyl)amino]-N-(2-[4-(1,3-benzodioxol-5-ylmethyl)-1-piperazinyl]-2-oxoethyl}acetamide hydrochloride]
21 | < 0.09 | 9.2 | COc1ccc(CNC(=O)CNC(=O)CNc2cccc(C(=N)N)c2)cc1OC [Example 16, 2-({3-[amino (imino)methyl]phenyl}amino)-N-[2-({[3,4-bis(methyloxy)phenyl]methyl]amino}-2-oxoethyl)acetamide hydrochloride]
22 | < 0.09 | 7.15 | N=C(N)c1cccc(NCC(=O)NCC(=O)NCc2ccccc2)c1 [Example 14, 2-({3-[amino (imino)methyl]phenyl}amino)-N-{2-oxo-2-[(phenylmethyl)amino]ethyl}acetamide hydrochloride]
23 | < 0.09 | 3.95 | N=C(N)c1cccc(NC(CO)C(=O)NCC(=O)N2CCc3ccccc3C2)c1 (stereo not drawn) [Example 15, 2-({3-[amino (imino)methyl]phenyl}amino)-N-[2-(3,4-dihydro-2 (1H)-isoquinolinyl)-2-oxoethyl]-3-hydroxypropanamide hydrochloride]
24 | < 0.09 | 7.7 | N=C(N)c1ccc(CNC(C(=O)NCC(=O)NCCc2ccccn2)c2ccc[nH]2)cc1 (stereo not drawn) [Example 21, 2-[({4-(amino(imino)methyl)phenyl}methyl)amino]-N-(2-oxo-2-{[2-(2-pyridinyl)ethyl]amino}ethyl)-2-(1H-pyrrol-2-yl)acetamide hydrochloride]

From patent publication US20050245511A1, “Novel compounds that inhibit tryptase activity” (Morphochem AG, priority 1999, published 2005)
